Changes are numbered by the printed parent chain.
Tests used:
Type in all cases: cell-based
AR [1] = target: T1, AR (Homo sapiens, UniProt P10275); assay: Reporter gene assay, AR transcriptional (MMTV-Luc) in CV1 cells; details: pcDNA-AR + MMTV-Luc, 0.1 nM R1881 plus test compound, 24 hrs, read-out: B1 = AR transcriptional IC50 (μM) in CV1 cells
T1 construct: expressed in transfected cells; host or cells: CV1 cells
T1 sequence (P10275 1-920): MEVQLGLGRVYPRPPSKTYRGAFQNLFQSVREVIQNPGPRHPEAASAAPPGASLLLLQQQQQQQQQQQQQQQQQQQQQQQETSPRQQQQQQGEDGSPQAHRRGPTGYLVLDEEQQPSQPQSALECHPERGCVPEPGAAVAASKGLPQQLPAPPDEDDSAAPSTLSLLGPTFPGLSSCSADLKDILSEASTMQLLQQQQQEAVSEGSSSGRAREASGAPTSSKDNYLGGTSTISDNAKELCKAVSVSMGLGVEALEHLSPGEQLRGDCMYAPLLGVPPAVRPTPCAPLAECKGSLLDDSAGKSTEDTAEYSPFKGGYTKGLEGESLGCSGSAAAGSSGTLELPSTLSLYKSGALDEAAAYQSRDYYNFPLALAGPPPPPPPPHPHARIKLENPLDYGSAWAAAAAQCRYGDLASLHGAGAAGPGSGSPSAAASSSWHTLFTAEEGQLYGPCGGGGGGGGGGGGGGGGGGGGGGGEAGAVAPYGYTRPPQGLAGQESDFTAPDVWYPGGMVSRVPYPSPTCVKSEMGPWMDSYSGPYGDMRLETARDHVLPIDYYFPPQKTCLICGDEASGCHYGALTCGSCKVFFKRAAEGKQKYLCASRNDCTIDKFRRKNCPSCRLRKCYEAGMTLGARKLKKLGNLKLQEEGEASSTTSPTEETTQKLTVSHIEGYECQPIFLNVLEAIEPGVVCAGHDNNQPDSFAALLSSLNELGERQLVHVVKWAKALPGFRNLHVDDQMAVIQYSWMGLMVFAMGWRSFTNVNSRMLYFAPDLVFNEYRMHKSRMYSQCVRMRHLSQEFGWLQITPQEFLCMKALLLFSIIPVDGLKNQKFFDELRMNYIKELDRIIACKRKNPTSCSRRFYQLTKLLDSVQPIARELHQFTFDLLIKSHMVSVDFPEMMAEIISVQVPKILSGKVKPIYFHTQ
In short: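 CV1 cells transiently co-transfected with human AR, MMTV-Luc reporter and Renilla-Luc (transfection efficiency and toxicity read-out), then stimulated 24 h with 0.1 nM R1881 plus increasing test compound concentrations. Firefly and Renilla luciferase quantified by dual-luciferase assay; IC50 derived from concentration-response.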

CV1 cells = assay: Toxicity of test compound in the CV1 reporter gene assay (Renilla-Luc)
Procedure: Reporter Gene Assay (IC50 determination, Table 2, B1-B3). CV1 cells were seeded into 96-well cell culture plates and transfected with Lipofectin. For AR transcriptional assays, the DNA mixture consisted of pcDNA-AR, MMTV-Luc (androgen responsive reporter gene), and Renilla-Luc (for assessing transfection efficiency and toxicity). Following overnight incubation, cells were induced with hormone (0.1 nM R1881 (synthetic AR agonist) plus increasing concentrations of test compound) for 24 hrs. Cells were lysed and luciferase activity was quantified using Dual Luciferase Reagent (DLR). IC50 determination was assessed using GraphPad Prism software.

AR [2] = target: T2, AR (Homo sapiens, UniProt P10275, T878A); assay: In Cell Western AR degradation assay in LNCaP cells; details: 18 hrs, greater than 50% degradation at 10 μM (method says 20 μM)
T2 construct: endogenous in cells; host or cells: LNCaP cells
T2 sequence (P10275 1-920 T878A): T1 sequence (P10275 1-920) with T878A
In short: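 After 48 h plating in RPMI with 8% CFS, LNCaP cells were exposed to 20 μM test compound for 18 h, fixed with 3.7% formaldehyde and permeabilized. AR was detected with anti-AR N20 antibody and an infrared secondary, imaged by LI-COR Odyssey and normalized to DRAQ5 DNA stain.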

Structure (SMILES)	IC50 (AR [1]) [µM]	B2 = % Toxicity of test compound (20 μM) (CV1 cells) [%]	B3 = % Toxicity of test compound (60 μM) (CV1 cells) [%]	B9 = AR degradation in LNCaP cells (In-Cell Western) (AR [2])
O=C1CCCC2=C1C(c1ccc([N+](=O)[O-])cc1)c1c(ccc3ccccc13)N2 (stereo not drawn) [Compound A1, 12-(4-nitrophenyl)-8,9,10,12-tetrahydrobenzo[a]acridin-11(7H)-one]	4.4	32	87	Degrader (Compounds that degrade AR (greater than 50% degradation at 10 μM) are indicated)
CC1CC(=O)C2=C(C1)Nc1ccc3ccccc3c1C2c1ccc(F)cc1 (stereo not drawn) [Compound A4]	2.6	0	51	Degrader (Compounds that degrade AR (greater than 50% degradation at 10 μM) are indicated)
O=C1CCCC2=C1Nc1ccc3ccccc3c1C2c1ccc([N+](=O)[O-])cc1 (stereo not drawn) [Compound A10]	5.7	17	88	Degrader (Compounds that degrade AR (greater than 50% degradation at 10 μM) are indicated)
